In brackets after ≈: the same amount, converted by molar mass. Like-named read-outs stand apart in the source and are kept apart here.
What was measured:
[1] = Slurry of Form B of pomalidomide in EtOH, 0.1 N HCl, or water (solid form conversion); format: physicochemical; conditions: slurring in EtOH, 0.1 N HCl, or water for 3 days
Description: In one embodiment, without being limited by particular theory, Form B is a metastable form of pomalidomide.

[2] = Solubility of pomalidomide in various solvents at ambient temperature (visual inspection, solvent aliquot addition); format: physicochemical
Description: Solubility was estimated by treating a weighed sample of pomalidomide with measured aliquots of the test solvent at ambient temperature, with shaking and/or sonication between aliquots. Dissolution was determined by visual inspection. Solubility numbers were calculated by […]. The actual solubilities may be greater than the numbers calculated because of the use of solvent aliquots that were too large or because of slow dissolution rates. […] The solubility number is expressed as “greater than” if dissolution occurred on addition of the first solvent aliquot.

## Nc1cccc2c1C(=O)N(C1CCC(=O)NC1=O)C2=O (stereo not drawn) [Form B of pomalidomide, 4-amino-2-(2,6-dioxopiperidine-3-yl)isoindoline-1,3-dione]
[1]
  Solid form stability on slurrying: converts to Form A of pomalidomide

## Nc1cccc2c1C(=O)N(C1CCC(=O)NC1=O)C2=O (stereo not drawn) [Pomalidomide, 4-amino-2-(2,6-dioxopiperidine-3-yl)isoindoline-1,3-dione]
[2]; Acetone
  solubility: 900 µg/mL (≈ 3.29 mM)
[2]; DMF:acetone (1:2)
  solubility: 6000 µg/mL (≈ 22 mM)
[2]; Hexafluoroisopropanol
  solubility: 2300 µg/mL (≈ 8.42 mM)
[2]; THF:water (95:5)
  solubility: 3500 µg/mL (≈ 12.8 mM)
[2]; organic solvent or mixture, thermodynamic from solid, 2,2,2-trifluoroethanol, read-out: Solubility
  solubility: < 1000 µg/mL
[2]; organic solvent or mixture, thermodynamic from solid, 2-methyltetrahydrofuran, read-out: Solubility
  solubility: < 1000 µg/mL
[2]; organic solvent or mixture, thermodynamic from solid, Acetonitrile, read-out: Solubility
  solubility: < 1000 µg/mL
[2]; organic solvent or mixture, thermodynamic from solid, DMF, read-out: Solubility
  solubility: > 5000 µg/mL
[2]; organic solvent or mixture, thermodynamic from solid, DMF:methanol (1:1), read-out: Solubility
  solubility: 4200 µg/mL (≈ 15.4 mM)
[2]; organic solvent or mixture, thermodynamic from solid, DMF:methanol (1:2), read-out: Solubility
  solubility: 2400 µg/mL (≈ 8.78 mM)
[2]; organic solvent or mixture, thermodynamic from solid, Dichloromethane, read-out: Solubility
  solubility: < 1000 µg/mL
[2]; organic solvent or mixture, thermodynamic from solid, Methanol, read-out: Solubility
  solubility: < 1000 µg/mL
[2]; organic solvent or mixture, thermodynamic from solid, acetone:water (95:5), read-out: Solubility
  solubility: < 1000 µg/mL
[2]; tetrahydrofuran (THF)
  solubility: 1100 µg/mL (≈ 4.03 mM)
